# Data: patent publication EP0545912B1, “1-Biphenylmethylimidazole derivatives, their preparation and their therapeutic use” (Sankyo Company Limited, priority 1991, dated 1992)
# System: All receptor (pressor response to angiotensin II)
# Assay: Evaluation of AII receptor blocking activity by inhibition of pressor response to angiotensin II
# Format: in vivo
# Conditions: dose inhibiting pressor response to intravenous angiotensin II (50 ng/kg) by fifty percent; anesthetized male Wister-Imamichi rats; test compound i.v., angiotensin II injected two minutes later; 2 min
# Experimental: Evaluation of All receptor blocking activity by Inhibition of pressor response to angiotensin II
# The biological activity of each compound was assessed by determining the dose required to inhibit the pressor response to intravenous angiotensin II by fifty percent (ID50) in rats. Male Wister-Imamichi rats, each weighing 300 to 400 g, were anesthesized by intraperitoneal injection of 100 mg/Kg of sodium thiobutabarbital [Inactin (trade name)] and two cannulae were inserted: one into the femoral artery for measuring blood pressure and the other into the femoral vein for injecting drugs. Fifty ng/kg of angiotension II were intravenously administered at intervals of about 10 minutes, and the elevation of blood pressure (normally about 50 mmHg) was observed. After constant pressor responses to angiotensin II were obtained, a test compound was intravenously administered. Two minutes later, angiotension II was again injected, and the inhibitory effect of the test compound was estimated. The percent inhibitions of the pressor response to angiotensin II by progressive increase of the test compound was used to calculate the value of ID50. Angiotensin II was used in this test dissolved in 0.5 % bovine serum albumin (BSA) and the test compounds were dissolved in 100% dimethyl sulphoxide (DMSO).
# In addition to the compounds of the invention (which are identified hereafter by the number of the one of the following Examples which illustrates their preparation), we also carried out the same experiment using a prior art compound (identified in the Table as "compound A"), which is 2-[4-(2-butyl-5-chloro-4-chloromethylimidazoll-ylmethyl)phenyl]benzoic acid, which is disclosed in Example 118 of European Patent Publication No. 253 310.
row,SMILES,ID50
1,"CCCCc1nc(C(C)O)c(C(=O)O)n1Cc1ccc(-c2ccccc2-c2nnn[nH]2)cc1 (stereo not shown) [Example 44, 2-Butyl-4-(1-hydroxyethyl)-1-{4-[2-(tetrazol-5-yl)phenyl]phenyl}methylimidazole-5-carboxylic acid]","0.0082 mg/kg, i.v."
2,"CCCCc1nc(CO)c(C(=O)NCC(=O)O)n1Cc1ccc(-c2ccccc2C(=O)O)cc1 [Example 55, N-Carboxymethyl-2-butyl-1-[(2'-carboxybiphenyl-4-yl)-methyl]-4-hydroxymethylimidazole-5-carboxamide]","0.23 mg/kg, i.v."
3,"CCCCc1nc(CO)c(C(=O)O)n1Cc1ccc(-c2ccccc2-c2nnn[nH]2)cc1 [Example 39, 2-Butyl-4-hydroxymethyl-1-{4-[2-(tetrazol-5-yl)-phenyl]phenyl}methylimidazole-5-carboxylic acid]","0.010 mg/kg, i.v."
4,"CCCCc1nc(CO)c(C(=O)O)n1Cc1ccc(-c2ccccc2C(=O)O)cc1 [Example 5, 2-Butyl-1-[(2'-carboxybiphenyl-4-yl)methyl]-4-hydroxymethylimidazole-5-carboxylic acid]","0.22 mg/kg, i.v."
5,"CCCCc1nc(C(C)O)c(C(=O)O)n1Cc1ccc(-c2ccccc2C(=O)O)cc1 (stereo not shown) [Example 11, 2-Butyl-1-[(2'-carboxybiphenyl-4-yl)methyl]-4-(1-hydroxyethyl) imidazole-5-carboxylic acid]","0.25 mg/kg, i.v."
6,"CCCCc1nc(C(C)O)c(C(N)=O)n1Cc1ccc(-c2ccccc2C(=O)O)cc1 (stereo not shown) [Example 45, 2-Butyl-1-[(2'-carboxybiphenyl-4-yl)methyl]-4-(1-hydroxyethyl) imidazol-5-carboxamide]","0.19 mg/kg, i.v."
7,"CCCCc1nc(C(O)C(C)C)c(C(N)=O)n1Cc1ccc(-c2ccccc2C(=O)O)cc1 (stereo not shown) [Example 48, 2-Butyl-1-[(2'-carboxybiphenyl-4-yl)methyl]-4-(1-hydroxy-2-methylpropyl)imidazole-5-carboxamide]","0.064 mg/kg, i.v."
8,"CCCc1nc(C(O)C(C)C)c(C(N)=O)n1Cc1ccc(-c2ccccc2-c2nnn[nH]2)cc1 (stereo not shown) [Example 76, 4-(1-Hydroxy-2-methylpropyl)-2-propyl-1-{4-[2-(tetrazol-5-yl)phenyl]phenyl}methylimidazole-5-carboxamide]","0.022 mg/kg, i.v."
9,"CCCc1nc(C(O)C(C)(C)C)c(C(N)=O)n1Cc1ccc(-c2ccccc2-c2nnn[nH]2)cc1 (stereo not shown) [Example 74, 4-(1-Hydroxy-2,2-dimethylpropyl)-2-propyl-1-{4-[2-(tetrazol-5-yl)phenyl]phenyl}methylimidazole-5-carboxamide]","0.036 mg/kg, i.v."
10,"CCCc1nc(C(O)C(C)(C)C)c(C(N)=O)n1Cc1ccc(-c2ccccc2C(=O)O)cc1 (stereo not shown) [Example 60, 1-[(2'-Carboxybiphenyl-4-yl)methyl]-4-(1-hydroxy-2,2-dimethylpropyl)-2-propylimidazole-5-carboxamide]","0.134 mg/kg, i.v."
11,"CCCc1nc(CO)c(C(=O)O)n1Cc1ccc(-c2ccccc2-c2nnn[nH]2)cc1 [Example 36, 4-Hydroxymethyl-2-propyl-1-{4-[2-(tetrazol-5-yl)phenyl]phenyl}methylimidazole-5-carboxylic acid]","0.0062 mg/kg, i.v."
12,"CCCCc1nc(CCl)c(Cl)n1Cc1ccc(-c2ccccc2C(=O)O)cc1 [compound A, 2-[4-(2-butyl-5-chloro-4-chloromethylimidazoll-ylmethyl)phenyl]benzoic acid, reference compound]","3.3 mg/kg, i.v."
13,"CCCc1nc(C(C)O)c(C(=O)O)n1Cc1ccc(-c2ccccc2-c2nnn[nH]2)cc1 (stereo not shown) [Example 41, 4-(1-Hydroxyethyl)-2-propyl-1-{4-[2-(tetrazol-5-yl)phenyl]phenyl}methylimidazole-5-carboxylic acid]","0.0063 mg/kg, i.v."
14,"CCCCc1nc(C(O)CC)c(C(N)=O)n1Cc1ccc(-c2ccccc2C(=O)O)cc1 (stereo not shown) [Example 46, 2 -Butyl-1-[(2'-carboxybiphenyl-4-yl)methyl]-4-(1-hydroxypropyl)imidazole-5-carboxamide]","0.18 mg/kg, i.v."
15,"CCCCc1nc(C(O)C(C)(C)C)c(C(N)=O)n1Cc1ccc(-c2ccccc2C(=O)O)cc1 (stereo not shown) [Example 59, 2-Butyl-1-[(2'-carboxybiphenyl-4-yl)methyl]-4-(1-hydroxy-2,2-dimethylpropyl)imidazole-5-carboxamide]","0.066 mg/kg, i.v."
16,"CCCCc1nc(C(O)C(C)(C)C)c(C(N)=O)n1Cc1ccc(-c2ccccc2-c2nnn[nH]2)cc1 (stereo not shown) [Example 75, 2-Butyl-4-(1-hydroxy-2,2-dimethylpropyl)-1-{4-[2-(tetrazol-5-yl)phenyl]phenyl}methylimidazole-5-carboxamide]","0.11 mg/kg, i.v."
